The values that follow come from patent US20250295628A1 (priority 2022, published 2025).

The subject of data set [1] is rabbit VX2 liver tumor animal model. As to the kind of experiment: Cisplatin plus composition 3-preparation in rabbit VX2 liver tumor model (Example 34). In kind it is in vivo, New Zealand rabbits. As to conditions: cisplatin 4 mg/kg once a week alone, 4 weeks. On the procedure: SPF grade New Zealand rabbits, 4-8 weeks old, 1.8-2.2 kg, with a standard diet and free access to water, were kept in an environment of 12-hour light/dark cycle with a constant temperature of (23±2° C.) and a humidity of (55±15%). The animals were anesthetized, guided by ultrasound, and VX2 hepatoma cells were introduced into the liver by minimally invasive approach, After monitoring New Zealand rabbits for 14 days, and tumor size was monitored with ultrasound; rabbits were randomly divided into 4 groups of 10 animals in each group according to tumor size and body weight, and drug treatment was started on day 15. Rabbits in the control group were intravenously injected with 0.9% sodium chloride injection through the ear vein. […] All New Zealand rabbits were treated for 4 weeks.
Tumor volume was estimated using the formula V=π(a×b^2)/6, where a and b were the longest and shortest diameters of the tumor measured using calipers. The weights of rabbits were monitored every 3-4 days during the experiment, and rabbited were sacrificed at the end of treatment; blood was collected, AST, ALT and CREA were tested, and the results are shown in Table 30. After anesthetizing each rabbit with Sutai 50+ tachypnosis 0.1 ml/kg, carotid artery phlebotomy was used as a termination procedure.

The test system of data set [2] is chronic cadmium poisoning model rabbits. As to the kind of experiment: Cadmium-removing effect by intravenous drip in chronic cadmium poisoning rabbits (Example 18). It is filed as in vivo, New Zealand rabbits. The settings on record: for Urine β2-microglobulin values: after four weeks of administration. The text has this: 205 male New Zealand rabbits, 1.8˜2.2 kg, were randomly divided into a blank control group with 25 rabbits and chronic cadmium poisoning groups with a total of 180 rabbits. The model rabbits were ear margin intravenous injected with a mixed solution containing 1.5 μmol/kg CdCl2 and 30 μmol/kg thioethanol (ME) according to weight, once/d for continuous 5 days, and observed for 35 days. After 35 days, qualified rabbits were selected according to weight, including 18 rabbits in the blank group and 162 rabbits in the poisoning group. The 162 rabbits in the poisoning group were randomly divided into a model group, D3 high-dose group, D3 low-dose group, compound 3B high-dose group, compound 3B low-dose group, composition 3 high-dose group, composition 3 low-dose group, composition 3-powder injection high-dose group, composition 3-powder injection low-dose group, with 18 rabbits in each group. Rabbits in the mode group and the blank group were administered by intravenous drip with the same volume of normal saline, with a rate of 30 drops/min for a dripping time of about 2 h, 1 time/d, 5 d/week. After administration on the last day of week 1, week 2 and week 4, the urine of 0 h˜6 h and the urine of 7 h˜24 h of rabbits were respectively collected; the content of cadmium in blood, urine and kidney, and the cadmium-removing rate from blood and kidney were determined, and the results are shown in Table 6.

The test system of data set [3] is thallium poisoning model rats. Nature of the data set: Therapeutic effect on thallium poisoning in Wistar rats (Example 24). In kind it is in vivo. As to conditions: EDTA 93.5 mg/kg, 4 weeks. On the procedure: After successful molding, rats were divided to 10 rats in the blank group and the remaining 50 rats, and the grouping and administration dose are shown in Table 19. Rats in all groups were administrated once a day for 5 days/week for a total of 4 weeks.
Rats were sacrificed 24 h after administration on the last day; blood, kidney, brain and liver were taken, and thallium contents in these organs were detected by ICP-MS, and the test results are shown in Table 20.

The subject of data set [4] is mixed chromium, cobalt, nickel and manganese poisoning model rabbits. As to the kind of experiment: Therapeutic effect on mixed poisoning of chromium, cobalt, nickel and manganese in rabbits (Example 26). As to conditions: EDTA 93.5 mg/kg, 3 days of treatment. In kind it is in vivo, New Zealand rabbits. On the procedure:
40 New Zealand rabbits with a weight of 1.5˜2.0 kg were taken, and normal saline was injected intravenously at the ear margin of rabbits of the blank group for 5 days. A mixed solution containing 5 mg/ml CrCl3, 3 mg/ml CoCl2, 1 mg/ml NiCl2 and 2 mg/ml MnCl2 was injected intravenously at the ear margin of rabbits of poisoning groups with a dose of 2 ml/kg for 5 days, and observed for 25 days, thus resulting in mixed poisoning models of chromium, cobalt, nickel and manganese in New Zealand rabbits.
After successful molding, there were 8 rabbits in the blank group and 24 rabbits in mixed poisoning groups. Rabbits in all groups were given once daily for 3 days. Rabbits in the blank group and the model group were administered by intravenous dripping with normal saline, and rabbits in the treating groups were administered with a normal saline solution containing the corresponding drug. The administration volume of all groups was the same, with a dripping rate of 30 drops/min, an administration time of about 2 h, 1 time/day for 3 days; the grouping and administration dose of New Zealand rabbit in different groups were shown in Table 21. 24-hour urine was collected every day for a total of 3 days, and the total amounts of chromium, cobalt, nickel and manganese excreted through urine during the 3 days were calculated, as shown in Table 22.

Data set [5] relates to arsenic poisoning model rats. Nature of the data set: Therapeutic effect on arsenic poisoning in Wistar rats (Example 23). In kind it is in vivo. The settings on record: EDTA 93.5 mg/kg. On the procedure:
60 Wistar rats with a body weight of 180˜200 g were taken; rats in a blank group freely drank deionized water for 3 months; rats in arsenic poisoning groups freely drank an aqueous solution containing 100 mg/L·As2O3 for continuous 3 months, with a water mount of 20 ml per day, equivalent to an oral dose of 10 mg/kg, resulting in arsenic poisoning of drinking water-type in rats.
After successful molding, rats were divided to 10 rats in blank group and the remaining 50 rats. All groups were administrated once a day for 5 days/week for a total of 4 weeks. Rats in the blank group and the model group were administered by intravenous drip with normal saline, and rats in the treating group were administered with a normal saline solution of the corresponding drug; all groups had the same administration volume, a drip rate of 30 drops/min, and an dripping time of about 1 h, 1 time/d, 5 d/week, for a total of four weeks.
Urine was collected on day 1 and day 26, arsenic excretion was measured; blood and kidney of rats were taken 24 hours after the 26th day of administration, and blood arsenic concentrations and renal arsenic concentrations were detected with ICPMS; the results are shown in Table 18.

The test system of data set [6] is lead poisoning model rats. As to the kind of experiment: Therapeutic effect on lead poisoning in SD rats (Example 22). It is filed as in vivo. As to conditions: EDTA 93.5 mg/kg, 4 weeks. The method, then:
30 SD rats with a body weight of 180˜200 g were taken; rats in the blank group freely drank deionized water containing 12.5 μL acetic acid for 3 weeks.
Rats in all groups were administrated once a day for 5 days/week for a total of 4 weeks. Rats in the blank group and model group were administered by intravenous drip with normal saline, and rats in treating groups were administered with normal saline solution of the corresponding drug; the administration volume of all groups was the same, with a dripping rate of 30 drops/min for a time of about 1 h, 1 time/day, 5 days/week; the grouping and administration dose of rats are shown in Table 14.

The mark [7] stands for this setting: 1 w of treatment, high-dose group (D3 433, compound 3B 83.5, composition 3 and composition 3-preparation 108 mg/kg).
The mark [8] stands for this setting: 1 w of treatment, low-dose group (D3 108, compound 3B 21, composition 3 and composition 3-preparation 27 mg/kg).
The mark [9] stands for this setting: 2 w of treatment, high-dose group (D3 433, compound 3B 83.5, composition 3 and composition 3-preparation 108 mg/kg).
The mark [10] stands for this setting: 2 w of treatment, low-dose group (D3 108, compound 3B 21, composition 3 and composition 3-preparation 27 mg/kg).
Setting [11] is: 4 w of treatment, high-dose group (D3 433, compound 3B 83.5, composition 3 and composition 3-preparation 108 mg/kg).
Setting [12] is: 4 w of treatment, low-dose group (D3 108, compound 3B 21, composition 3 and composition 3-preparation 27 mg/kg).

Molecules are shown by their SMILES. Marks after values point to notes of the source that are not given here.

As for `N.N.[Cl][Pt][Cl]` [Cisplatin, cisplatin], in data set [1], the ALT turned out to be 86.68 ± 26.88 U/L, the AST came out at 89.20 ± 13.66 U/L and the CREA worked out at 470.35 ± 85.57 µmol/L.
With `CSCCC(NCC(O)C(O)C(O)C(O)CO)C(=O)[O-].[Na+]` (stereo not shown) [Compound 3B], the Cadmium in blood in data set [2] (setting [7]) was 101.54 ± 13.27 µg/L; in data set [2] (setting [8]) it was 102.21 ± 16.38 µg/L; in data set [2] (setting [9]), 73.18 ± 15.27 µg/L; in data set [2] (setting [10]), 72.02 ± 16.92 µg/L; in data set [2] (setting [11]), 27.92 ± 14.72 µg/L; in data set [2] (setting [12]), 28.53 ± 12.62 µg/L. Also, the Cadmium in kidney in data set [2] (setting [7]) turned out to be 11.94 ± 3.51 µg/L; in data set [2] (setting [8]), 12.03 ± 3.84 µg/L; in data set [2] (setting [9]), 12.62 ± 5.37 µg/L; in data set [2] (setting [10]), 12.57 ± 3.37 µg/L; in data set [2] (setting [11]) it was 14.02 ± 2.96 µg/L; in data set [2] (setting [12]), 13.22 ± 4.20 µg/L. In addition, the “cadmium-removing effect (compared with the model group)” value in data set [2] (21 and 83.5 mg/kg, 1-4 weeks) is recorded as “no cadmium-removing effect”. The “Urine β2-microglobulin values” in data set [2] (high-dose group (D3 433, compound 3B 83.5, composition 3 and composition 3-preparation 108 mg/kg)) is given as 209.42 ± 38.21 ng/L; in data set [2] (low-dose group (D3 108, compound 3B 21, composition 3 and composition 3-preparation 27 mg/kg)), 213.56 ± 31.76 ng/L.
For `O=C(O)CN(CCN(CC(=O)O)CC(=O)O)CC(=O)O` [EDTA, ethylenediaminetetraacetate], in data set [3], the Thallium in blood was 836.69 ± 168.83 µg/L, the Thallium in kidney came out at 12.54 ± 4.48 µg/g and the Thallium in liver worked out at 4.27 ± 2.18 µg/g. In data set [4], the “Chromium in urine, total excreted in 3 days” value amounted to 178.48 ± 42.69 µg; the “Cobalt in urine, total excreted in 3 days” value is on record as 162.28 ± 44.97 ^ μg; the “Manganese in urine, total excreted in 3 days” value is on record as 169.52 ± 32.63 ^ μg; the “Nickel in urine, total excreted in 3 days” value is given as 188.28 ± 63.17 ^ μg. Further, in data set [5], the “Total arsenic in urine on day 1” value is 3.27 ± 1.84 µg and the “Total arsenic in urine on day 26” value was 3.18 ± 1.35 µg. In data set [5] (24 hours after the 26th day), this compound came in with an Arsenic in blood of 1362.98 ± 319.58 µg/L and an Arsenic in kidney of 6.08 ± 2.35 µg/g. Also, in data set [6], the “Blood concentration of Ca2+” value is 89.31 ± 5.28 µg/g, the “Blood concentration of Cu2+” value worked out at 754.21 ± 70.59 µg/g, the “Blood concentration of Fe3+” value is 194.72 ± 19.29 µg/g and the “Blood concentration of Mg2+” value worked out at 43.61 ± 3.32 µg/g. Also, in data set [6], the “Blood concentration of Zn2+” value was 2942.15 ± 176.08*^ΔΔ μg/g, the Lead in blood was 1218.69 ± 129.33 µg/L, the Lead in kidney is 16.54 ± 4.67 ^ μg/g and the Lead in liver came to 0.47 ± 0.28 µg/g.
